The text below walks through data of paper PMC9554870, “Mesoporous Silica Nanoparticles Improve Oral Delivery of Antitubercular Bicyclic Nitroimidazoles” (ACS Biomaterials Science & Engineering, 2021).

Data set [1] in a line: Aqueous (saturated water) solubility by LC-UV. The data set is classed as physicochemical. The settings on record: deionized water, 37 °C, encapsulated samples 10% w/w, n = 3. The procedure:
The solubility of pretomanid and MCC7433 was measured before and after loading into nanoparticles by using Shimadzu LCMS-2020 (Kyoto, Japan) with a variable-wavelength UV–visible detector. Briefly, 0.5 mg of compound equivalent particles (or 5 mg of 10 wt % compound loaded nanoparticles) were dispersed in 750 μL of deionized water. Samples were incubated at 37 °C on a rotator for 24 and 48 h. Samples were then centrifuged at 12 000 rpm for 20 min. The supernatant was collected and centrifuged for another round at 12 000 rpm, 20 min before being analyzed by LC-UV. The mobile phase was 0.05% formic acid in water (solvent A) and 0.05% formic acid in acetonitrile (solvent B). LC-MS condition: column Zorbax Eclipse XDB-Phenyl, 3.0 × 100 mm, 3.5 μm; column temperature: 40 °C; flow: 1 mL/min; injection volume: 5 μL; gradient timetable: 0.00 min, 5% B; 0.50 min, 5% B; 3.00 min, 100% B; 4.2 min, 100% B; 5.00 min, 5% B.

In data set [2] the test system is M. tuberculosis H37Rv strain. Nature of the data set: M. tuberculosis H37Rv minimum inhibition assay (resazurin reduction microplate assay). The data set is classed as cell-based. The note with it: Mycobacterium tuberculosis, lowest concentration with >90% inhibition of growth, free compounds predissolved in DMSO, nanoformulations dispersed in assay media, n = 4–6, read-out: MIC90%Inhib H37Rv.

A short description of another data set: in vivo. The note with it: male, CD-1, mouse, po, 20 mg/kg.
Details of data set [3]: method as in PMID 30562958. The note with it: vorinostat encapsulated within pristine and functionalized MCM-41; cited from earlier work.

In brackets after ≈: the same amount, converted by molar mass.

In data set [1], `O=[N+]([O-])c1cn2c(n1)OC[C@@H](OCc1ccc(OC(F)(F)F)cc1)C2` [pretomanid] yielded a solubility at 24 h of 15.5 µg/mL (≈ 43.1 µM). Also, the MIC90 in data set [2] came to 0.25 µg/mL (≈ 0.696 µM).
On to `O=c1c2nc([N+](=O)[O-])cn2ccn1Cc1ccc(OC(F)(F)F)cc1` [MCC7433], for which, in “in vivo”, the Tmax came to 5.33 h and the half-life was 193 min. The molecule further gave a solubility at 24 h in data set [1] of 0.33 µg/mL (≈ 0.932 µM). In addition, the MIC90 in data set [2] lay in the range of 0.25 to 0.5 µg/mL (≈ 0.706 to 1.41 µM).
For the molecule `NNC(=O)c1ccncc1` [isoniazid], the MIC90 in data set [2] turned out to be 0.04 µg/mL (≈ 0.292 µM).
Regarding `O=C(CCCCCCC(=O)Nc1ccccc1)NO` [vorinostat], in data set [3], the “fold improvement of solubility compared to the free drug” value is 2.6–4.3 fold.
